Measurements: patent US11524003B2, “Alpha-amino esters of hydroxypropylthiazolidine carboxamide derivative and salt form, crystal polymorph thereof” (ObsEva S.A., priority 2016, dated 2022)

Key:
[1] = Stability in HBSS buffer of the Caco-2 experiments; format: in vitro ADME; conditions: HBSS buffer (2% DMSO final concentration) at 37° C. for 60 and 120 minutes
Procedure: Stability of both compound I and compound II was assessed during the test. […] An aliquot of each solution was sampled at time zero (t=0) to assess the starting concentrations of the compounds. The solutions were incubated at 37° C. for the duration of the transport experiment. An aliquot of each solution was sampled at the end of experiment (t=120) to assess the final concentrations of compound I and compound II. Samples were analyzed by LC-MS.

Caco-2 cell monolayer = test: Bidirectional permeability across Caco-2 cell monolayers; format: in vitro ADME, human
Procedure: Compound I was dissolved in HBSS buffer (1% DMSO final concentration) at the concentrations of 1.5, 3 and 6 μM. Each concentration/sampling time was run in duplicate well. The test was performed in a gradient pH: the apical compartment (mucosal) was at pH 6.5, the basolateral compartment (serosal) was at pH 7.4.
Apical to basolateral (A→B, mucosal to serosal) transport: 200 μL of each concentration of compound I was added to the apical compartment and 400 μL of HBSS was added to the basolateral compartment. The plates were incubated at 37° C. An aliquot of the basolateral compartment was sampled after 60 and 120 min (t=60 and t=120). An aliquot of the apical compartment was sampled at the starting time (t=0) and after 120 min. (t=120).
Basolateral to apical (B→A, serosal to mucosal) transport: 400 μL of each concentration of compound I was added to the basolateral compartment and 200 μL of HBSS was added to the apical compartment. The plates were incubated at 37° C. An aliquot of the apical compartment was sampled after 60 and 120 min (t=60 and t=120). An aliquot of the basolateral compartment was sampled at the starting time (t=0) and after 120 min. (t=120). All samples were analyzed by LC/MS monitoring both compound I and the appearance of compound II.
Compound II was dissolved in HBSS buffer (1% DMSO final concentration) at the concentrations of 1.5, 3 and 6 μM. Each concentration/sampling time was run in duplicate well. The test was performed in a gradient pH: the apical compartment (mucosal) was at pH 6.5, the basolateral compartment (serosal) was at pH 7.4.
Apical to basolateral (A→B, mucosal to serosal) transport: 200 μL of each concentration of compound II was added to the apical compartment and 400 μL of HBSS was added to the basolateral compartment. The plates were incubated at 37° C. An aliquot of the basolateral compartment was sampled after 60 and 120 min (t=60 and t=120). An aliquot of the apical compartment was sampled at the starting time (t=0) and after 120 min. (t=120).
Basolateral to apical (B→A, serosal to mucosal) transport: 400 μL of each concentration of compound II was added to the basolateral compartment and 200 μL of HBSS was added to the apical compartment. The plates were incubated at 37° C. An aliquot of the apical compartment was sampled after 60 and 120 min (t=60 and t=120). An aliquot of the basolateral compartment was sampled at the starting time (t=0) and after 120 min. (t=120). All samples were analyzed by LC/MS monitoring compound II.

[2] = system: OT-induced myometrial contractility; test: Oxytocin-induced contractions of human myometrial biopsies (myograph); conditions: 6, 60, 600, 6000 nM
Procedure: Experiments were performed using a DMT Myograph 800 MS (ADINSTRUMENTS™) in oxygenated Kreb's solution with ADI Powerlab software. Once regular contractions had been established for at least 20 minutes, baseline measurements of spontaneous contraction frequency were recorded. The measurement of spontaneous contraction frequency is represented on the x-axis as “Spon.” A DMSO control or compound II was then added to each myometrial sample at the indicated concentrations and the effects of control or compound II on contractile frequency were measured over the ensuing 10-minute period. This time point is represented on the x-axis as “Compound II.” The effects of compound II on contractile frequency in the presence of OT were subsequently measured by challenging the myometrial tissue samples with increasing concentrations of OT (1 nM, 10 nM, and 100 nM) at sequential 10-minute intervals. […] Once regular contractions had been established for at least 20 minutes, baseline measurements of spontaneous work done per contraction were recorded. The measurement of spontaneous work done per contraction is represented on the x-axis as “Spon.” A DMSO control or compound II was then added to each myometrial sample at the indicated concentrations and the effects of control or compound II on work done per contraction were measured over the ensuing 10-minute period. […]

## O=C(N[C@@H](CCO)c1ccc(F)cc1)[C@@H]1SCCN1S(=O)(=O)c1ccc(-c2ccccc2)cc1 [Compound II, 3-([1,1′-biphenyl]-4-ylsulfonyl)-N-[1-(4-fluorophenyl)-3-hydroxypropyl]-1,3-thiazolidine-2-carboxamide]
[1]
  Stability in HBSS buffer: stable
Caco-2 cell monolayer
  Efflux: No efflux was detected
  Passive passage through the Caco-2 monolayer: good passive passage
Caco-2 cell monolayer; A→B
  Passage apical to basolateral: good percentage of passage
Caco-2 cell monolayer; B→A
  Permeability from basolateral to apical compartment: low rate of permeability
[2]
  Effect on OT-induced myometrial contractility: suppressing both PGF2α-induced and OT-induced myometrial contractility in a dose-dependent fashion
